# Assay results published in US20230049576A1, “GLUTATHIONE-CONTAINING COMPOSITION” (priority 2019, published 2023).
# Tests used:
# [1] = system: epidermal permeation barrier; settings: previous study, Non-patent Document 2, Patent Document 1; cited from earlier work
# [2] = target: thrombin (Homo sapiens, UniProt P00734); assay: Measurement of thrombin activity (Rox prothrombin kit, chromogenic substrate, absorbance 405 nm); format: biochemical; settings: glutathione 500 μg/ml to 2.5 mg/ml added to 40 ng/ml prothrombin; thrombin activator and substrate added; absorbance 405 nm every 40 seconds; FIG. 1
# Protocol: A Rox prothrombin kit (Distributor: Rossix) was used for the measurement of thrombin activity. After glutathione (Distributor: Nacalai Tesque, Inc.) was added to a 40 ng/ml solution of prothrombin (Distributor: Invitrogen) at a concentration of 500 μg/ml to 2.5 mg/ml, the thrombin activator and thrombin substrate included in the kit were added and thrombin activity was measured.
# [3] = system: cultured keratinocytes; settings: Cryj1 100 ng/ml with glutathione 5 μg/ml
# Protocol: Culture keratinocytes (Distributor: Kurabo) were cultured in the EPILIFE-KG2 medium (Distributor: Kurabo) for two days in a humidified atmosphere at 37° C. For the confluent culture, the medium was replaced with EPILIFE-KG2+Ca1.8 mM (Distributor: Kurabo), and then after 28 to 48 hours of incubation, with EPILIFE-KG2 +Cal containing 5 μM of Fura2 AM (Distributor: life technology), following by one hour of culturing. Then, it was replaced with a buffer (pH 7.4) containing NaCl 150 mM, KCI 5 mM, CaCl2 1.8 mM, MgCl2 1.2 mM, HEPES 25 mM, and D-glucose 10 mM, and Cryj1 (Distributor: HAYASHIBARA) was added to the buffer at the concentration of 100 ng/ml alone, or with glutathione (Distributor: Nacalai Tesque, Inc.) (5 μg/ml). Fluorescence was measured with a fluorescence microscope to measure changes in the intracellular calcium concentration.
# The value of intracellular calcium concentration about 2 minutes after the addition of Cryj1 was calculated and quantified using the Aqua Cosmos software.
SMILES,delay in thrombin-mediated recovery of the epidermal permeation barrier induced by Cryj1 [1],thrombin activity (substrate decomposition rate) [2],calcium imaging over time (excitation of fluorescence) ([3]; FIG. 2),intracellular calcium concentration about 2 minutes after the addition of Cryj1 ([3]; FIG. 3)
NC[C@H]1CC[C@H](C(=O)O)CC1 [tranexamic acid],blocks the delay in thrombin-mediated recovery of the epidermal permeation barrier,–,–,–
"N[C@@H](CCC(=O)N[C@@H](CS)C(=O)NCC(=O)O)C(=O)O [Glutathione, glutathione]",–,inhibit thrombin activity in a dose-dependent manner,suppresses the excitation,significantly suppresses the calcium response elicited by Cryj1
